Reference: ChEMBL document CHEMBL1139711, “A novel oxazine ring closure reaction affording (Z)-((E)-2-styrylbenzo[b]furo[3,2-d][1,3]oxazin-4-ylideno)acetaldehydes and their anti-osteoclastic bone resorption activity” (Bioorg Med Chem Lett, 2006)
Active and inactive are the calls of the source. The calls are words filed in the database; no cut-off is given here.

System: Osteoclast
Test: Bone resorption activity assessed as inhibition of PGE2-stimulated pit formation in ddY mouse osteoclasts
Format: functional, cell-based

Question: With `O=C/C=C1\OC(/C=C/c2ccccc2)=Nc2c1oc1ccc(Br)cc21` as the molecule, how does the Activity read?
Answer: The Activity was “inactive”.

Question: With `CCOC(=O)/C=C/C=C1\OC(/C=C/c2ccccc2)=Nc2c1oc1ccc(Br)cc21` as the molecule, how does the Activity read?
Answer: The Activity was “Active”.

Question: Which Activity does the source give for `C[C@]12CC[C@@H]3c4ccc(O)cc4CC[C@H]3[C@@H]1CC[C@@H]2O` here?
Answer: The Activity was “Active”.
